{"source": "patent US12186374B2", "about": "(Sanofi-Aventis Deutschland GmbH, priority 2014, dated 2025)", "key": {"[1]": {"tested_on": "patients with Type 2 diabetes mellitus (T2DM)", "experiment": "Fasting plasma glucose change from baseline to Week 30 (Example 2)", "assay_type": "in vivo, human", "protocol": "FPG is measured at a central laboratory. At V5 and V21, FPG will be part of the standardized meal test.\nSimilar MMRM method or ANCOVA was applied on continuous secondary efficacy endpoints and Cochran-Mantei-Haenszel method stratified by randomization strata was applied on categorical efficacy endpoints."}, "[2]": {"tested_on": "patients with Type 2 diabetes mellitus (T2DM)", "experiment": "ALT increase reported on AE form (Example 2)", "conditions": "on-treatment period"}}}
{"substance": "Gly(A21)-Arg(B31)-Arg(B32)-human insulin [Insulin Glargine]", "values": [{"measurement": "FPG, LS mean change from baseline to Week 30", "setting": "[1]; Example 2", "value": -3.27, "unit": "mmol/L"}, {"measurement": "Fasting plasma glucose, change from baseline to Week 30, LS Mean (SE)", "setting": "[1]; MMRM, mITT population", "value": "−3.27 (0.091) mmol/L"}, {"measurement": "Fasting plasma glucose, Week 30, Mean (SD)", "setting": "[1]; mITT population", "value": "6.53 (1.76) mmol/L"}, {"measurement": "Fasting plasma glucose, Week 30, Median", "setting": "[1]; mITT population", "value": 6.20, "unit": "mmol/L"}, {"measurement": "Patients with AE of ALT increase", "setting": "[2]; Example 2", "value": 2, "unit": "patients"}, {"measurement": "Events reported on the AE form for ALT increase: Alanine aminotransferase increased", "setting": "[2]; Safety population", "value": "2 (0.4%) n (%)"}, {"measurement": "Patients with events reported on the AE form for ALT increase: Any", "setting": "[2]; Safety population", "value": "2 (0.4%) n (%)"}]}
